Reference: ChEMBL document CHEMBL6087462, “Cuminaldehyde Potentiates Antiproteolytic Peptide Efficacy via Parallel Pathways of Enhanced Inner Membrane-Damaging Activity and Inhibition of Bacterial Energy Metabolism” (J Med Chem, 2025)
Calls of active or inactive are those of the source. No cut-off for these calls is given here.

Assays:
Escherichia coli [1] = assay: Drug resistance, ratio of MIC for Escherichia coli ATCC 25922 after 30 passages to MIC for Escherichia coli ATCC 25922 […] after initial exposure; assay type: functional
Escherichia coli [2] = assay: Antimicrobial activity against Escherichia coli UB 1005 assessed as reduction in microbial growth by CLSI based broth microdilution method; assay type: functional
Staphylococcus aureus [3] = assay: Antimicrobial activity against Staphylococcus aureus ATCC 29213 assessed as reduction in microbial growth by CLSI based broth microdilution method; assay type: functional
Pseudomonas aeruginosa [4] = assay: Antimicrobial activity against Pseudomonas aeruginosa ATCC 27853 assessed as reduction in microbial growth by CLSI based broth microdilution method; assay type: functional
Enterococcus faecalis [5] = assay: Antimicrobial activity against Enterococcus faecalis ATCC 29212 assessed as reduction in microbial growth by CLSI based broth microdilution method; assay type: functional
Salmonella typhimurium [6] = assay: Antimicrobial activity against Salmonella typhimurium ATCC 7731 assessed as reduction in microbial growth by CLSI based broth microdilution method; assay type: functional, Salmonella enterica subsp. enterica serovar Typhimurium; settings: Salmonella enterica
Staphylococcus aureus [7] = assay: Antimicrobial activity against Staphylococcus aureus 43300 assessed as reduction in microbial growth by CLSI based broth microdilution method; assay type: functional
Staphylococcus aureus [8] = assay: Antimicrobial activity against Staphylococcus aureus ATCC 25923 assessed as reduction in microbial growth by CLSI based broth microdilution method; assay type: functional
[9] = Antimicrobial activity against Salmonella enterica subsp. enterica serovar Pullorum ATCC 7913 assessed as reduction in microbial growth by CLSI based broth microdilution method; assay type: functional
Escherichia coli [10] = assay: Antimicrobial activity against Escherichia coli K88 assessed as reduction in microbial growth by CLSI based broth microdilution method; assay type: functional
Escherichia coli [11] = assay: Antimicrobial activity against Escherichia coli ATCC 25922 assessed as reduction in microbial growth by CLSI based broth microdilution method; assay type: functional
Escherichia coli [12] = assay: Antimicrobial activity against Escherichia coli 078 assessed as reduction in microbial growth by CLSI based broth microdilution method; assay type: functional
Escherichia coli [13] = assay: Antimicrobial activity against Escherichia coli K99 assessed as reduction in microbial growth by CLSI based broth microdilution method; assay type: functional
[14] = system: Staphylococcus epidermidis; assay: Antimicrobial activity against Staphylococcus epidermidis ATCC 12228 assessed as reduction in microbial growth by CLSI based broth microdilution method; assay type: functional
Salmonella typhimurium [15] = assay: Antimicrobial activity against Salmonella typhimurium ATCC 14028 assessed as reduction in microbial growth by CLSI based broth microdilution method; assay type: functional, Salmonella enterica subsp. enterica serovar Typhimurium; settings: Salmonella enterica
Cell membrane [16] = assay: Induction of cytoplasmic membrane depolarization in Escherichia coli ATCC 25922 assessed as increase in fluorescence intensity in presence of cuminaldehyde by DiSC3(5) dye-based fluorescence assay
Pseudomonas aeruginosa [17] = assay: Bactericidal activity against Pseudomonas aeruginosa 27853 at 0.5 times MIC incubated for 24 hrs by time kill assay; assay type: functional, organism-based
Escherichia coli [18] = assay: Antibacterial activity against Escherichia coli infected in K88-induced enteritis mouse model assessed as reduction in number of colonies in feces at 50 mg/kg, ip administered every 12 hrs for 2 days; assay type: functional, organism-based; settings: time 2.0 day
Staphylococcus aureus [19] = assay: Synergistic bactericidal activity Staphylococcus aureus ATCC 25923 at 0.5 times MIC incubated for 24 hrs in presence of cuminaldehyde by time kill assay; assay type: functional, organism-based
Escherichia coli [20] = assay: Antibacterial activity against Escherichia coli infected in K88-induced enteritis mouse model assessed as reduction in number of colonies in colon at 50 mg/kg, ip administered every 12 hrs for 2 days; assay type: functional, organism-based; settings: time 2.0 day
Mus musculus [21] = species: Mus musculus; assay: Anti-inflammatory activity in ETEC-induced enteritis mouse model assessed as decrease in TNF-alpha level in colon by ELISA analysis; assay type: functional, organism-based
Escherichia coli [22] = assay: Antimicrobial activity against Escherichia coli ATCC 25922 assessed as reduction in microbial growth in presence of Ca+; assay type: functional, organism-based
Streptococcus agalactiae [23] = assay: Bactericidal activity against Streptococcus agalactiae CICC 10465 at 0.5 times MIC incubated for 24 hrs by time kill assay; assay type: functional, organism-based
Klebsiella pneumoniae [24] = assay: Synergistic bactericidal activity against Klebsiella pneumoniae at 0.5 times MIC incubated for 24 hrs in presence of cuminaldehyde by time kill assay; assay type: functional, organism-based
Mus musculus [25] = species: Mus musculus; assay: Anti-inflammatory activity in ETEC-induced enteritis mouse model assessed as decrease in IL-6 level in colon by ELISA analysis; assay type: functional, organism-based
Escherichia coli [26] = assay: Antimicrobial activity against Escherichia coli ATCC 25922 assessed as reduction in microbial growth in presence of LPS; assay type: functional, organism-based
Klebsiella pneumoniae [27] = assay: Bactericidal activity against Klebsiella pneumoniae at 0.5 times MIC incubated for 24 hrs by time kill assay; assay type: functional, organism-based
[28] = system: Staphylococcus epidermidis; assay: Bactericidal activity against Staphylococcus epidermidis ATCC 12228 at 0.5 times MIC incubated for 24 hrs by time kill assay; assay type: functional, organism-based
Escherichia coli [29] = assay: Induction of ROS accumulation in Escherichia coli ATCC 25922 at 0.5 to 1 time MIC in presence of cuminaldehyde; assay type: functional, organism-based
Escherichia coli [30] = assay: Antibacterial activity against Escherichia coli infected in K88-induced enteritis mouse model assessed as reduction in number of colonies in ileum at 50 mg/kg, ip administered every 12 hrs for 2 days; assay type: functional, organism-based; settings: time 2.0 day
Salmonella typhimurium [31] = assay: Bactericidal activity against Salmonella typhimurium ATCC 14028 at 0.5 times MIC incubated for 24 hrs by time kill assay; assay type: functional, organism-based; settings: Salmonella enterica subsp. enterica serovar Typhimurium
Cell membrane [32] = assay: Induction of cytoplasmic membrane depolarization in Escherichia coli ATCC 25922 by DiSC3(5) dye-based fluorescence assay; assay type: subcellular
Escherichia coli [33] = assay: Antimicrobial activity against Escherichia coli ATCC 25922 assessed as reduction in microbial growth in presence of Mg+; assay type: functional, organism-based
Escherichia coli [34] = assay: Antibacterial activity against Escherichia coli infected in K88-induced enteritis mouse model assessed as reduction in diarrhea score at 50 mg/kg, ip administered every 12 hrs for 2 days; assay type: functional, organism-based; settings: time 2.0 day
Escherichia coli [35] = assay: Induction of ROS accumulation in Escherichia coli ATCC 25922 at 0.5 to 1 time MIC; assay type: functional, organism-based
Escherichia coli [36] = assay: Antimicrobial activity against Escherichia coli ATCC 25922 assessed as reduction in microbial growth in presence of SIF; assay type: functional, organism-based
Cell membrane [37] = assay: Induction of outer membrane permeabilization in Escherichia coli ATCC 25922 by NPN-dye based assay; assay type: subcellular
Escherichia coli [38] = assay: Upregulation of intracellular ATP level in Escherichia coli ATCC 25922 at 0.5 to 1 times MIC in presence of cuminaldehyde; assay type: functional, organism-based
Escherichia coli [39] = assay: Synergistic bactericidal activity against Escherichia coli K88 at 0.5 times MIC incubated for 24 hrs in presence of cuminaldehyde by time kill assay; assay type: functional, organism-based
Escherichia coli [40] = assay: Antimicrobial activity against Escherichia coli ATCC 25922 assessed as reduction in microbial growth in presence of SGF; assay type: functional, organism-based
Acinetobacter baumannii [41] = assay: Bactericidal activity against Acinetobacter baumannii at 0.5 times MIC incubated for 24 hrs by time kill assay; assay type: functional, organism-based
Mus musculus [42] = species: Mus musculus; assay: Anti-inflammatory activity in ETEC-induced enteritis mouse model assessed as structural changes in intestine by H and E staining based analysis; assay type: functional, organism-based
Mus musculus [43] = species: Mus musculus; assay: Anti-inflammatory activity in ETEC-induced enteritis mouse model assessed as decrease in IL-1beta level in colon by ELISA analysis; assay type: functional, organism-based
Enterococcus faecalis [44] = assay: Synergistic bactericidal activity Enterococcus faecalis ATCC 29212 at 0.5 times MIC incubated for 24 hrs in presence of cuminaldehyde by time kill assay; assay type: functional, organism-based
Pseudomonas aeruginosa [45] = assay: Synergistic bactericidal activity against Pseudomonas aeruginosa 27853 at 0.5 times MIC incubated for 24 hrs in presence of cuminaldehyde by time kill assay; assay type: functional, organism-based
Escherichia coli [46] = assay: Bactericidal activity against Escherichia coli K88 at 0.5 times MIC incubated for 24 hrs by time kill assay; assay type: functional, organism-based
[47] = system: Staphylococcus epidermidis; assay: Synergistic bactericidal activity Staphylococcus epidermidis ATCC 12228 at 0.5 times MIC incubated for 24 hrs in presence of cuminaldehyde by time kill assay; assay type: functional, organism-based
Cell membrane [48] = assay: Induction of outer membrane permeabilization in Escherichia coli ATCC 25922 in presence of cuminaldehyde by NPN-dye based assay; assay type: subcellular
Enterococcus faecalis [49] = assay: Bactericidal activity against Enterococcus faecalis ATCC […] at 0.5 times MIC incubated for 24 hrs by time kill assay; assay type: functional, organism-based
Streptococcus agalactiae [50] = assay: Synergistic bactericidal activity Streptococcus agalactiae CICC 10465 at 0.5 times MIC incubated for 24 hrs in presence of cuminaldehyde by time kill assay; assay type: functional, organism-based
Acinetobacter baumannii [51] = assay: Synergistic bactericidal activity against Acinetobacter baumannii at 0.5 times MIC incubated for 24 hrs in presence of cuminaldehyde by time kill assay; assay type: functional, organism-based
Staphylococcus aureus [52] = assay: Bactericidal activity against Staphylococcus aureus ATCC 25923 at 0.5 times MIC incubated for 24 hrs by time kill assay; assay type: functional, organism-based
Escherichia coli [53] = assay: Antimicrobial activity against Escherichia coli ATCC 25922 assessed as reduction in microbial growth in presence of Na+; assay type: functional, organism-based
Salmonella typhimurium [54] = assay: Synergistic bactericidal activity against Salmonella typhimurium ATCC 14028 at 0.5 times MIC incubated for 24 hrs in presence of cuminaldehyde by time kill assay; assay type: functional, organism-based; settings: Salmonella enterica subsp. enterica serovar Typhimurium
Escherichia coli [55] = assay: Upregulation of intracellular ATP level in Escherichia coli ATCC 25922 at 0.5 to 1 times MIC; assay type: functional, organism-based

SMILES: O=C(O)c1cn(C2CC2)c2cc(N3CCNCC3)c(F)cc2c1=O [CIPROFLOXACIN]
- Ratio (Escherichia coli [1]): 2

SMILES: CC(C)=CCC/C(C)=C/C=O [CITRAL]
- MIC (Escherichia coli [2]): 16400 µg/mL
- MIC (Staphylococcus aureus [3]): 1020 µg/mL
- MIC (Pseudomonas aeruginosa [4]): 4100 µg/mL
- MIC (Enterococcus faecalis [5]): 4100 µg/mL
- MIC (Salmonella typhimurium [6]): 8190 µg/mL
- MIC (Staphylococcus aureus [7]): 1020 µg/mL
- MIC (Staphylococcus aureus [8]): 1020 µg/mL
- MIC [9]: 8190 µg/mL
- MIC (Escherichia coli [10]): 16400 µg/mL
- MIC (Escherichia coli [11]): 8190 µg/mL
- MIC (Escherichia coli [12]): 8190 µg/mL
- MIC (Escherichia coli [13]): 8190 µg/mL
- MIC [14]: 4100 µg/mL
- MIC (Salmonella typhimurium [15]): 8190 µg/mL

SMILES: C=C(C)C1CC=C(C=O)CC1 (centres undefined) [PERILLALDEHYDE]
- MIC (Escherichia coli [2]): 16400 µg/mL
- MIC (Staphylococcus aureus [3]): 2050 µg/mL
- MIC (Pseudomonas aeruginosa [4]): 1230 µg/mL
- MIC (Enterococcus faecalis [5]): 512 µg/mL
- MIC (Salmonella typhimurium [6]): 16400 µg/mL
- MIC (Staphylococcus aureus [7]): 512 µg/mL
- MIC (Staphylococcus aureus [8]): 1230 µg/mL
- MIC [9]: 16400 µg/mL
- MIC (Escherichia coli [10]): 8190 µg/mL
- MIC (Escherichia coli [11]): 16400 µg/mL
- MIC (Escherichia coli [12]): 16400 µg/mL
- MIC (Escherichia coli [13]): 16400 µg/mL
- MIC [14]: 256 µg/mL
- MIC (Salmonella typhimurium [15]): 16400 µg/mL

SMILES: CC[C@H](C)[C@H](NC(=O)[C@@H](NC(=O)[C@@H](CCCNC(=N)N)NC(=O)[C@H](C)NC(=O)[C@H](C)NC(=O)C(N)Cc1cccc2ccccc12)[C@@H](C)CC)C(=O)N[C@@H](CC(C)C)C(=O)N[C@H](CCCNC(=N)N)C(=O)N[C@@H](Cc1c[nH]c2ccccc12)C(=O)N[C@H](CCCNC(=N)N)C(=O)N[C@@H](Cc1ccccc1)C(=O)N[C@@H](CCCNC(=N)N)C(=O)O (some centres undefined)
- Activity (Cell membrane [16]): Active
- Activity (Pseudomonas aeruginosa [17]): Active
- Activity (Escherichia coli [18]): Active
- Activity (Staphylococcus aureus [19]): Active
- Activity (Escherichia coli [20]): Active
- Activity (Mus musculus [21]): Active
- Activity (Escherichia coli [22]): Active
- Activity (Streptococcus agalactiae [23]): Active
- Activity (Klebsiella pneumoniae [24]): Active
- Activity (Mus musculus [25]): Active
- Activity (Escherichia coli [26]): Active
- Activity (Klebsiella pneumoniae [27]): Active
- Activity [28]: Active
- Activity (Escherichia coli [29]): Active
- Activity (Escherichia coli [30]): Active
- Activity (Salmonella typhimurium [31]): Active
- Activity (Cell membrane [32]): Dose-dependent-effect
- Activity (Escherichia coli [33]): Active
- Activity (Escherichia coli [34]): Active
- Activity (Escherichia coli [35]): Active
- Activity (Escherichia coli [36]): Active
- Activity (Cell membrane [37]): inactive
- Activity (Escherichia coli [38]): Active
- Activity (Escherichia coli [39]): Active
- Activity (Escherichia coli [40]): Active
- Activity (Acinetobacter baumannii [41]): Active
- Activity (Mus musculus [42]): Active
- Activity (Mus musculus [43]): Active
- Activity (Enterococcus faecalis [44]): Active
- Activity (Pseudomonas aeruginosa [45]): Active
- Activity (Escherichia coli [46]): Active
- Activity [47]: Active
- Activity (Cell membrane [48]): Active
- Activity (Enterococcus faecalis [49]): Active
- Activity (Streptococcus agalactiae [50]): Active
- Activity (Acinetobacter baumannii [51]): Active
- Activity (Staphylococcus aureus [52]): Active
- Activity (Escherichia coli [53]): Active
- Activity (Salmonella typhimurium [54]): Active
- Activity (Escherichia coli [55]): Active
